These results are taken from patent publication US20050277627A1, “Colchinol derivatives as vascular damaging agents” (priority 2000, published 2005).

Assay [1] concerns Hras5 tumours (NIH 3T3 fibroblasts transfected with Harvey ras, clone 5) in nude mice. The assay is described as follows: Hras5 necrosis model. The assay is classed as in vivo. Conditions: 25 mg/kg; single dose, culled 24 hours after dosing; male nude mice. The protocol:
NIH 3T3 fibroblasts transfected with Harvey ras, clone 5, (Hras5 cells) were kept in continual passage in Dulbecco's modifed Eagles medium (DMEM) containing 10% foetal bovine serum (FBS) and 1% glutamine, at 37° C. in a humidified incubator gassed with 7.5% carbon dioxide and 92.5% […]. Cells were implanted subcutaneously into the left flank of male nude mice (8-10 weeks of age) at an inoculum of 2×10^5 cells/mouse. Tumours were measured using calipers and randomised into groups of 2-4 mice between days 9-14 after implant. Mice were dosed with compounds, either intravenously or intraperitoneally, once on day of randomisation and culled 24 hours after dosing. Compounds were dissolved in 20% hydroxypropyl beta cyclodextrin in physiological saline at pH 7 and dosed in a volume of 0.1 ml per 10 g body weight. Tumours were excised, weighed and placed in buffered formalin. Area of necrosis in individual tumours was assessed from a haematoxylin/eosin stained-slide by a pathologist and scored from 0, meaning no significant change, to 10, meaning 91-100% necrosis. The activity of examples 5 and 7 (described hereinafter) against tumour vasculature was measured by the fluorescent dye method described hereinabove. Example 1 scored 6.6 at 25 mg/kg.

In another assay the test system is mammalian tubulin. Particulars: O. Boye et al Med. Chem. Res., 1991, 1, 142-150; read-out: IC50 in a tubulin polymerisation assay; cited from earlier work.
The test system of assay [2] is tumour vasculature in CaNT tumour-bearing mice. The assay is described as follows: Activity against tumour vasculature measured by fluorescent dye (Hoechst 33342). The assay is classed as in vivo. Conditions: 50 mg/kg intraperitoneally, dye injected 24 hours after drug treatment. The protocol: (b) Activity Against Tumour Vasculature Measured by Fluorescent Dye
Tumour functional vascular volume in CaNT tumour-bearing mice was measured using the fluorescent dye Hoechst 33342 according to the method of Smith et al (Brit. Jnl. Cancer 1988, 57, 247-253). Five animals were used in control and treated groups. The fluorescent dye was dissolved in saline at 6.25 mg/ml and injected intravenously at 10 mg/kg 24 hours after intraperitoneal drug treatment. One minute later, animals were killed and tumours excised and frozen; 10 μm sections were cut at 3 different levels and observed under UV illumination using an Olympus microscope equipped with epifluorescence. Blood vessels were identified by their fluorescent outlines and vascular volume was quantified using a point scoring system based on that described by Chalkley, (Jnl. Natl. Cancer Inst., 1943, 4, 47-53). All estimates were based on counting a minimum of 100 fields from sections cut at the 3 different levels.

For `COc1cc2c(c(OC)c1OC)-c1ccc(OC(=O)CCCC(=O)N3CCN(C(C)=O)CC3)cc1[C@@H](NC(C)=O)CC2` [Example 1, (5S)-5-Acetylamino-9,10,11-trimethoxy-6,7-dihydro-5H-dibenzo[a,c]cyclohepten-3-yl 5-(4-acetylpiperazin-1-yl)-5-oxopentanoate], the “necrosis score (0 = no significant change, 10 = 91-100% necrosis)” value in assay [1] stood at 6.6.
In general, IC50 refers to the concentration that inhibits the measured activity by half. In the case of `COc1cc2c(c(OC)c1OC)-c1ccc(N)cc1C(NC(C)=O)CC2` (stereo not drawn) [N-[3-amino-9,10,11-trimethoxy-6,7-dihydro-5H-dibenzo[a,c]cyclohepten-5-yl]acetamide], the IC50 in the assay on mammalian tubulin was 58 µM. The “decrease in perfused vascular volume relative to control” value in assay [2] is listed as 88%.
